Source: PubChem BioAssay (NCI)
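Method: 48-hour compound exposure of cells in 96-well plates, five concentrations, linear interpolation of endpoints. Here, GI50 denotes the concentration required for 50% inhibition of growth. TGI marks complete inhibition of growth.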

What was measured:
Assay in all cases: inhibition of tumour cell growth, NCI panel, 48 h
KM12 colon = tested on: KM12 colon
SR leukemia = tested on: SR leukemia
MALME-3M melanoma = tested on: MALME-3M melanoma
DU-145 prostate = tested on: DU-145 prostate
SK-MEL-2 melanoma = tested on: SK-MEL-2 melanoma
NCI-H522 lung = tested on: NCI-H522 lung
LOX IMVI melanoma = tested on: LOX IMVI melanoma
BT-549 breast = tested on: BT-549 breast
T-47D breast = tested on: T-47D breast
COLO 205 colon = tested on: COLO 205 colon
A498 renal = tested on: A498 renal
HOP-92 NSCLC = tested on: HOP-92 NSCLC
HL-60(TB) leukemia = tested on: HL-60(TB) leukemia
HS 578T breast = tested on: HS 578T breast
786-0 renal = tested on: 786-0 renal
HT29 colon = tested on: HT29 colon
HCT-116 colon = tested on: HCT-116 colon
M14 melanoma = tested on: M14 melanoma
CAKI-1 renal = tested on: CAKI-1 renal
SF-268 CNS = tested on: SF-268 CNS
MCF7 breast = tested on: MCF7 breast
NCI-H226 lung = tested on: NCI-H226 lung
ACHN renal = tested on: ACHN renal
SN12C renal = tested on: SN12C renal
NCI-H460 lung = tested on: NCI-H460 lung
SK-MEL-5 melanoma = tested on: SK-MEL-5 melanoma
SNB-75 CNS = tested on: SNB-75 CNS
SF-539 CNS = tested on: SF-539 CNS
MDA-MB-468 breast = tested on: MDA-MB-468 breast
EKVX NSCLC = tested on: EKVX NSCLC
A549 NSCLC = tested on: A549 NSCLC
HCC-2998 colon = tested on: HCC-2998 colon
SNB-19 CNS = tested on: SNB-19 CNS
TK-10 renal = tested on: TK-10 renal
OVCAR-8 ovarian = tested on: OVCAR-8 ovarian
NCI-H23 lung = tested on: NCI-H23 lung
UO-31 renal = tested on: UO-31 renal
SK-MEL-28 melanoma = tested on: SK-MEL-28 melanoma
SF-295 CNS = tested on: SF-295 CNS
NCI/ADR-RES ovarian = tested on: NCI/ADR-RES ovarian
IGROV1 ovarian = tested on: IGROV1 ovarian
MDA-MB-435 = tested on: MDA-MB-435
RXF 393 renal = tested on: RXF 393 renal
HOP-62 NSCLC = tested on: HOP-62 NSCLC
MOLT-4 leukemia = tested on: MOLT-4 leukemia
OVCAR-4 ovarian = tested on: OVCAR-4 ovarian
OVCAR-3 ovarian = tested on: OVCAR-3 ovarian
OVCAR-5 ovarian = tested on: OVCAR-5 ovarian
UACC-62 melanoma = tested on: UACC-62 melanoma
SK-OV-3 ovarian = tested on: SK-OV-3 ovarian
UACC-257 melanoma = tested on: UACC-257 melanoma
SW-620 colon = tested on: SW-620 colon
U251 CNS = tested on: U251 CNS
CCRF-CEM leukemia = tested on: CCRF-CEM leukemia
MDA-MB-231 breast = tested on: MDA-MB-231 breast
HCT-15 colon = tested on: HCT-15 colon
PC-3 prostate = tested on: PC-3 prostate

`COc1cc2c3c(n(CCCNC(C)C)c(=O)c2cc1OC)-c1nc2c(cc1C3=O)OCO2` gave a GI50 (KM12 colon) of 12.8 µM, a TGI (KM12 colon) of 28.6 µM and a GI50 (SR leukemia) of 0.359 µM. It also gave a TGI (SR leukemia) of 2.77 µM, a GI50 (MALME-3M melanoma) of 1.54 µM and a TGI (MALME-3M melanoma) of 3.01 µM. For the same compound, the GI50 (DU-145 prostate) was 1.05 µM, the TGI (DU-145 prostate) was 16.6 µM and the GI50 (SK-MEL-2 melanoma) was 21.1 µM. For the same compound, the TGI (SK-MEL-2 melanoma) was 40.6 µM, the GI50 (NCI-H522 lung) was 0.768 µM and the TGI (NCI-H522 lung) was 27.6 µM. It also gave a GI50 (LOX IMVI melanoma) of 1.01 µM, a TGI (LOX IMVI melanoma) of 2.21 µM and a GI50 (BT-549 breast) of 4.17 µM. For the same compound, the TGI (BT-549 breast) was 23.1 µM, the GI50 (T-47D breast) was 4.76 µM and the TGI (T-47D breast) was 28.6 µM. For the same compound, the GI50 (COLO 205 colon) was 3.98 µM, the TGI (COLO 205 colon) was 23 µM and the GI50 (A498 renal) was 12.2 µM. It also gave a TGI (A498 renal) of 27 µM, a GI50 (HOP-92 NSCLC) of 10.6 µM and a TGI (HOP-92 NSCLC) of 24.9 µM. The GI50 (HL-60(TB) leukemia) was 3.77 µM, the TGI (HL-60(TB) leukemia) was 21.2 µM and the GI50 (HS 578T breast) was 11.8 µM. The TGI (HS 578T breast) was 33 µM, the GI50 (786-0 renal) was 1.55 µM and the TGI (786-0 renal) was 2.98 µM. The GI50 (HT29 colon) was 1.35 µM, the TGI (HT29 colon) was 22.7 µM and the GI50 (HCT-116 colon) was 1.04 µM. It also gave a TGI (HCT-116 colon) of 2.28 µM, a GI50 (M14 melanoma) of 3.42 µM and a TGI (M14 melanoma) of 18.1 µM. It also gave a GI50 (CAKI-1 renal) of 2.43 µM, a TGI (CAKI-1 renal) of 19.2 µM and a GI50 (SF-268 CNS) of 1.17 µM. It also gave a TGI (SF-268 CNS) of 23.4 µM, a GI50 (MCF7 breast) of 0.101 µM and a TGI (MCF7 breast) of 3.07 µM. The GI50 (NCI-H226 lung) was 2.22 µM, the TGI (NCI-H226 lung) was 13.3 µM and the GI50 (ACHN renal) was 1.5 µM. The TGI (ACHN renal) was 13.2 µM, the GI50 (SN12C renal) was 10.6 µM and the TGI (SN12C renal) was 23.5 µM. It also gave a GI50 (NCI-H460 lung) of 0.294 µM, a TGI (NCI-H460 lung) of 11.6 µM and a GI50 (SK-MEL-5 melanoma) of 1.39 µM. The TGI (SK-MEL-5 melanoma) was 5.35 µM, the GI50 (SNB-75 CNS) was 0.825 µM and the TGI (SNB-75 CNS) was 12.4 µM. The GI50 (SF-539 CNS) was 1.52 µM, the TGI (SF-539 CNS) was 7.26 µM and the GI50 (MDA-MB-468 breast) was 0.492 µM. The TGI (MDA-MB-468 breast) was 6.08 µM, the GI50 (EKVX NSCLC) was 10.7 µM and the TGI (EKVX NSCLC) was 23.6 µM. The GI50 (A549 NSCLC) was 2.52 µM, the TGI (A549 NSCLC) was 24.2 µM and the GI50 (HCC-2998 colon) was 9.38 µM. For the same compound, the TGI (HCC-2998 colon) was 21.5 µM, the GI50 (SNB-19 CNS) was 2 µM and the TGI (SNB-19 CNS) was 18.7 µM. For the same compound, the GI50 (TK-10 renal) was 19.6 µM, the TGI (TK-10 renal) was 35.4 µM and the GI50 (OVCAR-8 ovarian) was 5.28 µM. It also gave a TGI (OVCAR-8 ovarian) of 24.9 µM, a GI50 (NCI-H23 lung) of 0.587 µM and a TGI (NCI-H23 lung) of 12.4 µM. The GI50 (UO-31 renal) was 5.86 µM, the TGI (UO-31 renal) was 20.4 µM and the GI50 (SK-MEL-28 melanoma) was 4.94 µM. It also gave a TGI (SK-MEL-28 melanoma) of 18.2 µM, a GI50 (SF-295 CNS) of 0.348 µM and a TGI (SF-295 CNS) of 15 µM. The GI50 (NCI/ADR-RES ovarian) was 1.52 µM, the TGI (NCI/ADR-RES ovarian) was 3.25 µM and the GI50 (IGROV1 ovarian) was 14.8 µM. It also gave a TGI (IGROV1 ovarian) of 30.7 µM, a GI50 (MDA-MB-435) of 2.16 µM and a TGI (MDA-MB-435) of 10.9 µM. The GI50 (RXF 393 renal) was 2.26 µM, the TGI (RXF 393 renal) was 14.7 µM and the GI50 (HOP-62 NSCLC) was 0.474 µM. It also gave a TGI (HOP-62 NSCLC) of 18.5 µM, a GI50 (MOLT-4 leukemia) of 0.0457 µM and a TGI (MOLT-4 leukemia) of 2.13 µM. The GI50 (OVCAR-4 ovarian) was 17.1 µM, the TGI (OVCAR-4 ovarian) was 39.9 µM and the GI50 (OVCAR-3 ovarian) was 14.3 µM. The TGI (OVCAR-3 ovarian) was 28.3 µM, the GI50 (OVCAR-5 ovarian) was 13 µM and the TGI (OVCAR-5 ovarian) was 26.3 µM. For the same compound, the GI50 (UACC-62 melanoma) was 9.84 µM, the TGI (UACC-62 melanoma) was 23.6 µM and the GI50 (SK-OV-3 ovarian) was 2.04 µM. For the same compound, the TGI (SK-OV-3 ovarian) was 19.2 µM, the GI50 (UACC-257 melanoma) was 13.8 µM and the TGI (UACC-257 melanoma) was 29 µM. For the same compound, the GI50 (SW-620 colon) was 0.724 µM, the TGI (SW-620 colon) was 21.3 µM and the GI50 (U251 CNS) was 0.588 µM. For the same compound, the TGI (U251 CNS) was 19.8 µM, the GI50 (CCRF-CEM leukemia) was 0.0437 µM and the TGI (CCRF-CEM leukemia) was 1.32 µM. The GI50 (MDA-MB-231 breast) was 1.42 µM, the TGI (MDA-MB-231 breast) was 2.81 µM and the GI50 (HCT-15 colon) was 1.21 µM. It also gave a TGI (HCT-15 colon) of 2.61 µM, a GI50 (PC-3 prostate) of 2.72 µM and a TGI (PC-3 prostate) of 21.9 µM.
